# Test results reported in paper doi:10.1101/2022.06.29.498063v1, “Molecular basis for the pheromone-mediated feeding preference of early-instar Mythimna separata larvae” (biorxiv, 2022).
# Target: T1, MsGOBP2 (Mythimna separata, UniProt A0A5H2NB15)
# T1 construct: recombinant, pColdII vector, E. coli TransB, Ni-NTA purified, expression tag removed with enterokinase
# T1 sequence (A0A5H2NB15 22-162): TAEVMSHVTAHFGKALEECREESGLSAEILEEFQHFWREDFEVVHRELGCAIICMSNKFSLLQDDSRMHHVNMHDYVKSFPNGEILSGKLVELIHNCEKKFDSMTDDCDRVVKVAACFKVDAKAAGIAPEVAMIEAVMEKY
# Experiment: direct fluorescence titration with the probe
# Type: binding
# Conditions: 2 μM protein; protein dialyzed in 10 mM PBS pH 7.4; excitation 337 nm
compound,measurement,value
c1ccc(Nc2cccc3ccccc23)cc1 [1-NPN],K1-NPN,yielding the dissociation constants between the two proteins and 1-NPN (K1-NPN)
